Source: US8383853B2, “Method for preparing 2,6-diethyl-4-methylphenylacetic acid” (Bayer Cropscience AG, priority 2004, dated 2013)

Experiments:
Type in all cases: in vivo
Setaria viridis [1] = test: Herbicidal pre-emergence action; conditions: greenhouse
Excerpt: (§1) Seeds of monocotyledonous and dicotyledonous weed and crop plants are placed in sandy loam in wood fiber pots and covered with soil. The test compounds, formulated in the form of wettable powders (WP), are then, as an aqueous suspension with a water application rate of 600 l/ha (converted), with 0.2% of wetting agent added, applied to the surface of the covering soil in various dosages.
(§2) After the treatment, the pots are placed in a greenhouse and kept under good growth conditions for the test plants. The visual assessment of the emergence damage on the test plants is carried out after a trial period of 3 weeks by comparison with untreated controls (herbicidal effect in percent (%): 100% effect=the plants have died, 0% effect=like control plants).

Avena fatua [2] = test: Herbicidal pre-emergence action; conditions: greenhouse
Excerpt: as §1, §2

Alopecurus [3] = test: Herbicidal pre-emergence action; conditions: greenhouse
Excerpt: as §1, §2

Lolium multiflorum [4] = test: Herbicidal pre-emergence action; conditions: greenhouse
Excerpt: as §1, §2

Veronica [5] = test: Herbicidal pre-emergence action; conditions: greenhouse, 320 g of a.i./ha
Excerpt: as §1, §2

Setaria viridis [6] = test: Herbicidal post-emergence action; conditions: greenhouse, 80 g of a.i./ha
Procedure: (§3) Seeds of monocotyledonous and dicotyledonous weed and crop plants are placed into sandy loam in wood fiber pots, covered with soil and cultivated in a greenhouse under good growth conditions. Two-three weeks after sowing, the test plants are treated at the one-leaf stage. The test compounds, formulated as wettable powders (WP), are then, in various dosages with a water application rate of 600 l/ha (converted), with 0.2% of wetting agent added, sprayed onto the green parts of the plants. After the test plants have been kept in the greenhouse under optimum growth conditions for about 3 weeks, the effect of the preparations is rated visually in comparison to untreated controls (herbicidal effect in percent (%): 100% effect=the plants have died, 0% effect=like control plants).

Avena fatua [7] = test: Herbicidal post-emergence action; conditions: greenhouse, 80 g of a.i./ha
Procedure: as §3

Alopecurus [8] = test: Herbicidal post-emergence action; conditions: greenhouse, 80 g of a.i./ha
Procedure: as §3

Lolium multiflorum [9] = test: Herbicidal post-emergence action; conditions: greenhouse, 80 g of a.i./ha
Procedure: as §3

Veronica [10] = test: Herbicidal post-emergence action; conditions: greenhouse, 80 g of a.i./ha
Procedure: as §3

Meloidogyne incognita = test: Meloidogyne test (spray treatment); conditions: 20 ppm of a.i., after 14 d
Procedure: To produce a suitable preparation of active compound, 1 part by weight of active compound is mixed with the stated amounts of solvent, and the concentrate is diluted with water to the desired concentration.
Vessels are filled with sand, solution of active compound, Meloidogyne incognita egg/larva suspension and lettuce seeds. The lettuce seeds germinate and the plants develop. On the roots, galls are formed.
After the desired period of time, the nematicidal activity is determined in % by the formation of galls. 100% means that no galls have been found; 0% means that the number of galls on the treated plants corresponds to that of the untreated control.

Summer wheat = test: Container trials with cereal, post-emergence, without or with safener; conditions: crop damage, 28 days after application
Procedure: (§4) Seeds of monocotyledonous and dicotyledonous weed and crop plants are placed into sandy loam in wood fiber pots or in plastic pots, covered with soil and cultivated in a greenhouse, during the vegetation period also outdoors outside of the greenhouse, under good growth conditions. Two-three weeks after sowing, the test plants are treated at the one- to three-leaf stage. The test compounds, formulated as wettable powders (WP) or liquid (EC) are, in various dosages with a water application rate of […] (converted), with wetting agent (0.2 to 0.3%) added, sprayed onto the plants and the surface of the soil. Three-four weeks after the treatment of the test plants, the effect of the preparations is rated visually in comparison to untreated controls (herbicidal effect in percent (%): 100% effect=the plants have died, 0% effect=like control plants).
(§5) If it is additionally to be tested as to whether safeners can improve the plant compatibility of test substances in the case of crop plants, the following options are used for applying the safener: • seeds of the crop plants are, before sowing, dressed with the safener substance (the amount of safener stated in percent, based on the weight of the seed) • before the application of the test substances, the crop plants are sprayed with the safener at a certain application rate per hectare (usually 1 day before the application of the test substances) • the safener is applied together with the test substance as a tank mix (the amount of safener is stated in g/ha or as a ratio, based on the herbicide).
(§6) By comparing the effect of the test substances on crop plants without or with safener treatment, it is possible to assess the effect of the safener substance.

Echinochloa = test: Herbicidal pre-emergence action; conditions: greenhouse, 80 g of a.i./ha
Excerpt: as §1, §2

Echinochloa crus-galli = test: Herbicidal post-emergence action; conditions: greenhouse, 80 g of a.i./ha
Procedure: as §3

Summer barley = test: Container trials with cereal, post-emergence, without or with safener; conditions: crop damage
Procedure: as §4, §5, §6

[11] = greenhouse, post-emergence, 12.5 g of a.i./ha
[12] = greenhouse, post-emergence, 25 g of a.i./ha

Compound | herbicidal effect, Setaria (Setaria viridis [6]) | herbicidal effect, Avena fatua (Avena fatua [7]) | herbicidal effect, Alopecurus (Alopecurus [8]) | herbicidal effect, Lolium (Lolium multiflorum [9]) | herbicidal effect, Veronica (Veronica [10]) | Summer wheat observed (%) (Summer wheat; 12.5 g of a.i./ha) | herbicidal effect, Echinochloa (Echinochloa) | herbicidal effect, Setaria (Setaria viridis [1]; 80 g of a.i./ha) | herbicidal effect, Alopecurus (Alopecurus [3]; 80 g of a.i./ha) | herbicidal effect, Lolium (Lolium multiflorum [4]; 80 g of a.i./ha) | herbicidal effect, Echinochloa (Echinochloa crus-galli) | Summer barley observed (%) (Summer barley; [11]) | Summer barley observed (%) (Summer barley; [12]) | Summer wheat observed (%) (Summer wheat; 25 g of a.i./ha) | also measured
CCOCC(=O)OC1=C(c2c(CC)cc(C)cc2CC)C(=O)NC12CCC(OC)CC2 (single isomer, unassigned) [I-b-2] | 100% | 100% | 100% | 100% | 70% | 95% |  |  |  |  |  |  |  |  | herbicidal effect, Setaria (Setaria viridis [1]; 320 g of a.i./ha): 100%; herbicidal effect, Avena fatua (Avena fatua [2]; 320 g of a.i./ha): 90%; herbicidal effect, Alopecurus (Alopecurus [3]; 320 g of a.i./ha): 100%; herbicidal effect, Lolium (Lolium multiflorum [4]; 320 g of a.i./ha): 100%; herbicidal effect, Veronica (Veronica [5]): 100%; nematicidal activity in % by the formation of galls (Meloidogyne incognita): ≥ 70%
CCOC(=O)OC1=C(c2c(CC)cc(C)cc2CC)C(=O)NC12CCC(OC)CC2 (single isomer, unassigned) [I-c-2] | 100% |  | 100% | 100% | 80% |  | 100% | 90% | 90% | 100% | 100% |  |  |  | 
C=CCOC(=O)OC1=C(c2c(CC)cc(C)cc2CC)C(=O)NC12CCC(OC)CC2 (stereo not shown) [I-c-1] | 100% | 90% | 100% | 100% |  |  | 100% | 100% | 100% | 100% | 100% | 35% | 60% |  | herbicidal effect, Avena fatua (Avena fatua [2]; 80 g of a.i./ha): 60%
CCOC1CCC2(CC1)NC(=O)C(c1c(CC)cc(C)cc1CC)=C2O (single isomer, unassigned) [I-a-2] |  |  |  |  |  | 40% |  |  |  |  |  |  |  | 80% | Summer barley observed (%) (Summer barley; 28 days after application, 25 g of a.i./ha): 25%; Summer barley observed (%) (Summer barley; 28 days after application, 50 g of a.i./ha): 50%
CCc1cc(C)cc(CC)c1C1=C(O)C2(CCC(OC)CC2)NC1=O (stereo not shown) [I-a-1] |  |  |  |  |  |  |  |  |  |  |  | 20% | 60% |  | Summer barley observed (%) (Summer barley; greenhouse, post-emergence, 50 g of a.i./ha): 93%
CCc1cc(C)cc(CC)c1C1=C(OC(=O)COC)C2(CCC(OC)CC2)NC1=O (stereo not shown) [I-b-1] | 100% | 100% | 100% | 100% | 80% |  |  |  |  |  |  |  |  | 90% | 
